Reference: US20250127905A1, “GLUTARIMIDE COMPOUND AND USE THEREOF” (MEDSHINE DISCOVERY INC., priority 2021, published 2025)
Where a name gives a salt, the structure may show the parent alone.

Tested on: sodium urate-induced acute gouty arthritis
Assay: Sodium urate-induced acute gouty arthritis in rats
Format: in vivo, SD rats
Description: It is to evaluate the preventive and therapeutic effect of compounds on sodium urate-induced acute gouty arthritis in rats. Animals: 5-week-old male SD rats; source: Zhejiang Vital River Laboratory Animal Technology Co., Ltd. Experimental grouping: After 3 days of acclimatization, all animals were measured for basal hindfoot volume, arthritis index score, and bilateral hindfoot pain threshold. 50 animals were selected and divided equally into 5 groups with 10 animals each based on body weight, hindfoot volume, arthritis index, and bilateral hindfoot pain threshold. The day of initiation of administration was recorded as D-1, and intragastric administration was performed twice a day for 6 consecutive days (D-1 to […]). 1 hour after the first administration at D0 (1 day after administration), except for the blank control group, the other rats were anesthetized with isoflurane, and 50 μL (50 mg/mL) of sodium urate solution was injected into the joint cavity for modeling at the lateral posterior side of the right ankle joint, which was used as a puncture point. Joint swelling would peak after 8 to 12 hours (lasting about 72 hours). Foot volumes of the animals were measured and arthritis index (AI) scoring was performed before and 2, 5, 8, 11, 24, 48, 72, and 96 hours after the onset of inflammation; pain thresholds were measured using a bipedal balance pain tester before and 2, 24, 48, 72, and 96 hours after the onset of inflammation. Photographs of critical swelling were taken at the peak of joint swelling (8 to 12 hours) in each group of animals and retained. Foot volume measurement: Before measurement, a line was drawn at the ankle joint of a rat with a marker to mark the position, and the instrument was added with clean water and zeroed to be ready for measurement. The hind limbs of the rat were placed in the water so that the marked line at the ankle joint was on the surface of the liquid, at which time the foot pedal was pressed to read the foot volume of the rat. At the end of the measurement, the foot pedal was pressed again for zeroing to be ready for the measurement of the next rat. Arthritis index (AI): The foot volume was measured while the swelling of the modeled foot was scored. Arthritis index scoring criteria: [table] Experimental data were expressed as Mean±SD; data were statistically analyzed using IBM SPSS Statistics 21, and p<0.05 was considered a significant difference between the two groups.

[1] = 30 mg/kg intragastric twice a day, time 0 h
[2] = 30 mg/kg intragastric twice a day, time 2 h
[3] = 30 mg/kg intragastric twice a day, time 5 h
[4] = 30 mg/kg intragastric twice a day, time 8 h
[5] = 30 mg/kg intragastric twice a day, time 11 h
[6] = 30 mg/kg intragastric twice a day, time 24 h
[7] = 30 mg/kg intragastric twice a day, time 48 h
[8] = 30 mg/kg intragastric twice a day, time 72 h
[9] = 30 mg/kg intragastric twice a day, time 96 h
[10] = 100 mg/kg intragastric twice a day, time 0 h
[11] = 100 mg/kg intragastric twice a day, time 2 h
[12] = 100 mg/kg intragastric twice a day, time 5 h
[13] = 100 mg/kg intragastric twice a day, time 8 h
[14] = 100 mg/kg intragastric twice a day, time 11 h
[15] = 100 mg/kg intragastric twice a day, time 24 h
[16] = 100 mg/kg intragastric twice a day, time 48 h
[17] = 100 mg/kg intragastric twice a day, time 72 h
[18] = 100 mg/kg intragastric twice a day, time 96 h
[19] = 200 mg/kg intragastric twice a day, time 0 h
[20] = 200 mg/kg intragastric twice a day, time 2 h
[21] = 200 mg/kg intragastric twice a day, time 5 h
[22] = 200 mg/kg intragastric twice a day, time 8 h
[23] = 200 mg/kg intragastric twice a day, time 11 h
[24] = 200 mg/kg intragastric twice a day, time 24 h
[25] = 200 mg/kg intragastric twice a day, time 48 h
[26] = 200 mg/kg intragastric twice a day, time 72 h
[27] = 200 mg/kg intragastric twice a day, time 96 h

For `O=C1CCC(c2noc3c(NC(=O)CN4CCN(C[C@H]5CC[C@H](n6cc(NC(=O)c7cnn8ccc(N9C[C@H]%10C[C@@H]9CO%10)nc78)c(C(F)F)n6)CC5)CC4)cccc23)C(=O)N1` (stereo partly drawn) [Hydrochloride of WX015], the Arthritis index [1] was 0, the Foot volume [1] was 3.63 mL and the Hindfoot weight-bearing difference [1] was 0.69 g. The Arthritis index [2] was 1, the Foot volume [2] was 3.88 mL and the Hindfoot weight-bearing difference [2] was 19.09 g. It also gave an Arthritis index [3] of 1, a Foot volume [3] of 3.9 mL and an Arthritis index [4] of 1. The Foot volume [4] was 3.9 mL, the Arthritis index [5] was 1 and the Foot volume [5] was 3.92 mL. It also gave an Arthritis index [6] of 0.9, a Foot volume [6] of 3.9 mL and a Hindfoot weight-bearing difference [6] of 13.22 g. It also gave an Arthritis index [7] of 0.5, a Foot volume [7] of 3.91 mL and a Hindfoot weight-bearing difference [7] of 6.6 g. The Arthritis index [8] was 0.3, the Foot volume [8] was 3.94 mL and the Hindfoot weight-bearing difference [8] was 4.3 g. It also gave an Arthritis index [9] of 0.1, a Foot volume [9] of 3.96 mL and a Hindfoot weight-bearing difference [9] of 2.1 g. For the same compound, the Arthritis index [10] was 0, the Foot volume [10] was 3.63 mL and the Hindfoot weight-bearing difference [10] was 0.12 g. It also gave an Arthritis index [11] of 1, a Foot volume [11] of 3.85 mL and a Hindfoot weight-bearing difference [11] of 16.38 g. For the same compound, the Arthritis index [12] was 1, the Foot volume [12] was 3.88 mL and the Arthritis index [13] was 1. For the same compound, the Foot volume [13] was 3.9 mL, the Arthritis index [14] was 1 and the Foot volume [14] was 3.91 mL. For the same compound, the Arthritis index [15] was 0.6, the Foot volume [15] was 3.88 mL and the Hindfoot weight-bearing difference [15] was 12.2 g. The Arthritis index [16] was 0.3, the Foot volume [16] was 3.9 mL and the Hindfoot weight-bearing difference [16] was 5.72 g. For the same compound, the Arthritis index [17] was 0.2, the Foot volume [17] was 3.93 mL and the Hindfoot weight-bearing difference [17] was 3 g. For the same compound, the Arthritis index [18] was 0, the Foot volume [18] was 3.95 mL and the Hindfoot weight-bearing difference [18] was 2.01 g. The Arthritis index [19] was 0, the Foot volume [19] was 3.62 mL and the Hindfoot weight-bearing difference [19] was -0.23 g. The Arthritis index [20] was 1, the Foot volume [20] was 3.84 mL and the Hindfoot weight-bearing difference [20] was 14.81 g. The Arthritis index [21] was 1, the Foot volume [21] was 3.88 mL and the Arthritis index [22] was 1. For the same compound, the Foot volume [22] was 3.89 mL, the Arthritis index [23] was 1 and the Foot volume [23] was 3.88 mL. The Arthritis index [24] was 0.5, the Foot volume [24] was 3.87 mL and the Hindfoot weight-bearing difference [24] was 11.32 g. For the same compound, the Arthritis index [25] was 0.2, the Foot volume [25] was 3.89 mL and the Hindfoot weight-bearing difference [25] was 3.91 g. For the same compound, the Arthritis index [26] was 0, the Foot volume [26] was 3.91 mL and the Hindfoot weight-bearing difference [26] was 2.1 g. The Arthritis index [27] was 0, the Foot volume [27] was 3.93 mL and the Hindfoot weight-bearing difference [27] was 1.94 g.
